Where two headings read alike, the source gives them in different places.
Tests used:
GPR88 KO and WT mice [1] = experiment: Phencyclidine-stimulated locomotor hyperactivity; type: in vivo
[2] = target: T1, striatal dopamine D2 receptors (Mus musculus, UniProt P61168); experiment: [^3H]spiperone binding to striatal membrane preparations; parameters: species or system mice; settings: pool of 10
T1 construct: from tissue; host or cells: mouse striatum (membrane preparation / homogenate)
Description: Striata from 10 mice (male and female, WT & GPR88 KO) were pooled and homogenized in a motor-driven POLYTRON™ homogenizer (Kinematica AG, Newark, N.J.) at setting six for 10 seconds in 3 mL per 100 mg of wet tissue in 50 mM Tris-HCl buffer, pH 7.4, containing 120 mM NaCl, 5 mM KCl, 1.5 mM CaCl2, 4 mM MgCl2, and 1 mM EDTA. […] The binding of each concentration of radioligand was determined in duplicate. Incubations were carried out at room temperature for 120 minutes. The final concentration of the membrane protein in each binding assay was approximately 70 μg/ml. Butaclamol (+), (10 μM), (Sigma-Aldrich, St. Louis, Mo.) was used to define the nonspecific binding. The incubations were terminated by rapid filtration using a Wallac Tomtec harvester (Waltham, Mass.) and buffer-presoaked glass fiber filter mats (GF/B, Whatman Inc. Florham Park, N.J.). […] The radioactivity of the filters was then counted in a Wallac 1205 scintillation counter (Perkin Elmer Life and Analytical Sciences).
The estimates of Bmax (the number of available binding receptors) and Kd (the dissociation constant) were calculated by fitting the specific binding data with nonlinear regression using GraphPad PRISM™ data analysis software (GraphPad Software, San Diego, Calif.).

GPR88 KO and WT mice [3] = experiment: Amphetamine-stimulated locomotor hyperactivity; type: in vivo; settings: 3 mg/kg i.p., 40-90 min
Description: The amphetamine-stimulated locomotor hyperactivity assay is another type of assay to model the neuropathological states in schizophrenia, similar to the hyperdopaminergia in the ventral striatum. To measure spontaneous activity and amphetamine-stimulated locomotor hyperactivity, the mice were individually placed in Opto-Veramax-3 monitor cages (Columbus Instruments, Columbus, Ohio) and allowed to habituate for 30 minutes with room light and white noise on. After habituation, each mouse was injected with amphetamine (AMPH, 3 mg/kg) in the intraperitoneum. During the first 30 minutes, the spontaneous activity was recorded every 10 minutes. After amphetamine administration, amphetamine-stimulated locomotor hyperactivity was measured every 10 minutes over a 60 minutes time span by the activity monitor. Accuscan Versamax and Versadat software (Columbus Instruments, Columbus, Ohio) were used to convert the infrared beam breaks into horizontal activity counts. […] Males and females were analyzed separately.

striatal dopamine = experiment: In vivo striatal microdialysis; settings: 3 mg/kg i.p., male and female GPR88 KO and WT mice, dialysates for 3 hours
Description: Chromatographic separations were performed using a Capcell PAK™, Strong Cation Exchange columns (5 μm UG80, 1.5×150 mm; Shiseido, Phenomenex, USA). The mobile phase comprised (mM) 13 Na2HPO4, 87 NaH2PO4, 0.1 EDTA and 20% methanol, was adjusted to pH 6 and delivered at 0.2 ml/minutes at 40° C.

GPR88 KO and WT mice [4] = experiment: Apomorphine-induced climbing and stereotypy; type: in vivo
Description: The GPR88 KO and WT mice were acclimated to a wire cage (cylindrical ½″×½″ mesh with the dimensions of 4½″ d×5½″ h) for at least 2 hours before testing to allow proper habituation. […] (+ present, − absent). Readings were repeated every 5 minutes during a 30-minute test session.
The behavioral assessment was conducted over three conditions in succession: (1) an evaluation of the response to a subcutaneous vehicle (0.25% TWEEN® 80) injection to establish a baseline; (2) followed by an evaluation of the response to a dose of 0.3 mg/kg subcutaneous apomorphine injection; (3) followed by an evaluation of the response to 1 mg/kg subcutaneous apomorphine injection. Behavioral observation began 5 minutes after each injection. Vehicle was given at T0 minutes with observational assessment from T5-T35 minutes and habituation followed from T35-T65 minutes.
At T65, the 0.3 mg/kg dose of apomorphine was administered. Behavioral observation for the 0.3 mg/kg dose of apomorphine was from T70-T100, followed by another habituation from T100-T130 minutes.
At T130 min, the 1.0 mg/kg dose of apomorphine was administered and then the mice were scored from T135-T165 min. For each subject, the climbing scores were totaled for each observational period (maximum=12 per animal). Stereotypy scores were also summed up (maximum=6 per animal). […] Males and females were analyzed separately.

dopamine D2 receptors = dopamine D2 receptors (Mus musculus, UniProt P61168); settings: 1 mM dopamine, striatal membranes
Sequence of dopamine D2 receptors (P61168 whole entry): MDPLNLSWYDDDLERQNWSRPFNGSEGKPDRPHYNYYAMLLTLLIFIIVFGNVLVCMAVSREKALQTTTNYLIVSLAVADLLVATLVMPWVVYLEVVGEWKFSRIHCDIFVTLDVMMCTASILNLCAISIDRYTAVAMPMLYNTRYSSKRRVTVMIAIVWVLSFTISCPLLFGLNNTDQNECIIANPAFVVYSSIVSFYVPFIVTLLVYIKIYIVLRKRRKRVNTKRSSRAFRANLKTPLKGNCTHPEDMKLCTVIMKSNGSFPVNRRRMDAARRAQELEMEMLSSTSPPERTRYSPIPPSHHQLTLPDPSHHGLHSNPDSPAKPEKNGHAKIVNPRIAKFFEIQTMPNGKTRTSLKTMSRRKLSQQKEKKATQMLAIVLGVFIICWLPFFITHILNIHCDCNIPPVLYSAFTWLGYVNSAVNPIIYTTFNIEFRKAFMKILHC
Description: Briefly, striata were collected from the mice (9 GPR88 KO or WT) and frozen at 80° C. until use. The tissue was homogenized in 1:100 volume (wet weight/volume) of ice-cold K-HEPES buffer (20 mM, pH=7.6), containing 7 mM of MgCl2, 100 mM of NaCl, 1 mM of EDTA, and 1 mM of DTT (buffer A), and centrifuged at 45,000 g for 10 minutes at 4° C. The membrane pellet was resuspended in 100 volumes (w/v) of fresh buffer A and re-centrifuged under the same conditions.
The incubation was started by addition of [^35S]GTPγS (final concentration 0.5 nM) and proceeded for 90 minutes at 30° C. The assay was terminated by filtration through a filter plate (GF/B, Perkin Elmer Life and Analytical Sciences) with five washings of cold buffer A (350 μl). The filter plate was air-dried and the radioactivity content of the filters was counted in 25 μl scintillation cocktail MICROSCINT™ 20 (Perkin Elmer Life and Analytical Sciences) by a Perkin Elmer TopCount NXT scintillation counter.

GPR88 KO and WT mice [5] = experiment: Haloperidol-induced catalepsy; type: in vivo; settings: 1 mg/kg i.p., 30-120 minutes, male and female mice
Description: Maintenance of this position was considered catalepsy. […] Males and females were analyzed separately.

GPR88 KO and WT mice [6] = experiment: Antipsychotic block of apomorphine-induced climbing and stereotypy; type: in vivo
Description: Observation and scoring for climbing and stereotypy were performed as described in Example 6. […] Males and females were analyzed separately. […] For graphical representation, the data was normalized to the amount of climbing and stereotypy shown by the vehicle treated control group.

GPR88 KO and WT mice [7] = settings: 0.54 mg/kg i.p. 30 minutes before testing, PPI averaged across 3 dB levels
Description: To detect potential phenotypic deficits in the GPR88 knockout mice, they were first evaluated for startle habituation. In brief, mice were tested using the SR-LAB (San Diego Instruments, San Diego, Calif.) system. Each system consists of a ventilated sound attenuated chamber containing a stabilimeter consisting of a Plexiglas cylinder (12.5 cm length, 3.5 cm diameter) mounted on a Plexiglas frame. Acoustic stimuli were delivered through a speaker mounted in the enclosure ceiling, that was 27 cm above the cylinder. Startle responses were transduced by a piezoelectric accelerometer mounted beneath the frame. Output signals were digitized and rectified as consecutive 1-millisecond (msec) readings (a total of 65 were recorded, and startle response was expressed as an averaged response across these samples) on a computer using the San Diego Instrument software. Mice were placed individually in the chamber for a 5-minute acclimation period at a background noise level of 64 dB.
Prepulse inhibition was measured immediately following the startle sensitivity test. […] Percentage prepulse inhibition was calculated as 100 minus the ratio of the average startle response observed at each prepulse+pulse trial relative to the pulse alone stimulus, times 100. The percentage prepulse at across dB levels was analyzed by repeated-measures ANOVA. […] Males and females were analyzed separately. […]

[8] = GPR88 KO and WT female mice, 0.3 mg/kg haloperidol
[9] = male WT mice, 0.54 and 1.0 mg/kg haloperidol

T1 sequence (P61168 whole entry): as above

c1ccc(C2(N3CCCCC3)CCCCC2)cc1 [PCP, phencyclidine]
PCP-stimulated locomotor activity (GPR88 KO and WT mice [1]; female WT and GPR88 KO mice, 1.0 mg/kg): Neither of the genotypes responded
PCP-stimulated locomotor activity (GPR88 KO and WT mice [1]; female WT and GPR88 KO mice, 1.7 mg/kg or 3.0 mg/kg): increased locomotor activity
PCP-stimulated locomotor activity (GPR88 KO and WT mice [1]; male WT and GPR88 KO mice, highest dose 3 mg/kg i.p.): increased locomotor activity
PCP-stimulated locomotor activity (GPR88 KO and WT mice [1]; male WT and GPR88 KO mice, lower doses (1.0, 1.7 mg/kg)): Neither of the genotypes responded

O=C(CCCN1CCC2(CC1)C(=O)NCN2c1ccccc1)c1ccc(F)cc1 [[^3H]spiperone]
Bmax (number of available binding receptors) ([2]; striatal membranes of GPR88 KO mice): 1.83 pmol/mg
Bmax (number of available binding receptors) ([2]; striatal membranes of WT mice): 1.34 pmoles/mg protein

CC(N)Cc1ccccc1 (centres unmarked) [amphetamine]
locomotor activity after amphetamine administration (GPR88 KO and WT mice [3]; GPR88 KO male mice): significant increase in activity
locomotor activity after amphetamine administration (GPR88 KO and WT mice [3]; female mice): significant increase in activity
striatal extracellular dopamine after amphetamine (striatal dopamine): significant and equal increase in dopamine

CN1CCc2cccc3c2[C@H]1Cc1ccc(O)c(O)c1-3 [apomorphine]
apomorphine-induced climbing scores, dose effect (GPR88 KO and WT mice [4]; female GPR88 KO and WT mice, 1 mg/kg s.c.): the most climbing
apomorphine-induced stereotypy scores, dose effect (GPR88 KO and WT mice [4]; male GPR88 KO and WT mice, 1 mg/kg s.c.): maximal stereotypy
apomorphine-induced climbing scores, dose effect (GPR88 KO and WT mice [4]; male GPR88 KO and WT mice, vehicle, 0.3 and 1 mg/kg s.c.): climbing increasing with the dose

NCCc1ccc(O)c(O)c1 [dopamine]
stimulation of [^35S]GTPγS binding in GPR88 KO mice relative to WT mice (dopamine D2 receptors): twice

O=C(CCCN1CCC(O)(c2ccc(Cl)cc2)CC1)c1ccc(F)cc1 [haloperidol]
catalepsy (percentage of maximum possible catalepsy), GPR88 KO versus WT (GPR88 KO and WT mice [5]): equivalent levels of catalepsy
block of apomorphine-induced climbing (GPR88 KO and WT mice [6]; [8]): full block of climbing
block of apomorphine-induced stereotypy (GPR88 KO and WT mice [6]; [8]): full block of stereotypy
minimal effective dose, apomorphine-induced climbing and stereotypy assay (summary) (GPR88 KO and WT mice [6]; GPR88 KO male mice): 0.54 mg/kg
minimal effective dose, apomorphine-induced climbing and stereotypy assay (summary) (GPR88 KO and WT mice [6]; WT male mice): < 0.3 mg/kg
block of apomorphine-induced climbing (GPR88 KO and WT mice [6]; male GPR88 KO mice, 1.0 mg/kg haloperidol): full block of climbing
block of apomorphine-induced climbing (GPR88 KO and WT mice [6]; [9]): full block of climbing
block of apomorphine-induced stereotypy (GPR88 KO and WT mice [6]; [9]): full block of stereotypy

Cc1nc2n(c(=O)c1CCN1CCC(c3noc4cc(F)ccc34)CC1)CCCC2 [risperidone]
percentage prepulse inhibition (PPI), treatment versus vehicle (GPR88 KO and WT mice [7]; male GPR88 KO mice): increasing PPI over untreated
percentage prepulse inhibition (PPI), treatment versus vehicle (GPR88 KO and WT mice [7]; male WT mice): increasing PPI over untreated

From patent publication US20080040819A1, “Methods of identifying agents for treatment of schizophrenia and related disorders” (Wyeth, priority 2006, published 2008)
